Target: Heat shock 70 kDa protein 1A (Homo sapiens, UniProt V9GZ37)
Experiment: inhibition of Hsp70 binding activity – biochemical, fluorescence polarization, SAR follow-up (AID 1072)

Sequence of Heat shock 70 kDa protein 1A (V9GZ37 whole entry): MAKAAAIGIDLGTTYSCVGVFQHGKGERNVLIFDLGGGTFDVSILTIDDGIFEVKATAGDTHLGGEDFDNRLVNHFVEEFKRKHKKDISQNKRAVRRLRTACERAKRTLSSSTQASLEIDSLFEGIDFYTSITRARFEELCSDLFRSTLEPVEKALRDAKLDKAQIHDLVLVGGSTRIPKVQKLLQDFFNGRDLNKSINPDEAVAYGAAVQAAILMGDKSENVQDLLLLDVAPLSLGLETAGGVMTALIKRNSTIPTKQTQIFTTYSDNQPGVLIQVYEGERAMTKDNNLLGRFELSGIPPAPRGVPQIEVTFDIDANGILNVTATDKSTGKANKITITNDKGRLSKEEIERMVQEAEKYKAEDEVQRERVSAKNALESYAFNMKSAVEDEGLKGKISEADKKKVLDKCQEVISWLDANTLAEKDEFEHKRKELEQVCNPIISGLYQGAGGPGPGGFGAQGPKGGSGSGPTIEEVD

IC50: 34.2 µM
SMILES: O=C1C=C2CC3(O)CCc4c(ccc(O)c4O)C3=C2CC1=O (stereo unspecified) [3,4,6a,10-tetrakis(oxidanyl)-6,7-dihydro-5H-benzo[g]fluoren-9-one]

— BindingDB's records for doi:10.7270/Q2S75DRW (Burnham Center For Chemical Genomics, 2008)
